Measured values taken from US10543216B2, “Modus of administration of iron, and new formulations adapted for the said goal” (BIOFER S.P.A., priority 2013, dated 2020).
Read-outs that look alike come from different tables or passages of the source.

Legend:
[1] = 100 mg of Fe2+ orally, healthy volunteers, Dresow et al., FIG. 5, cited from earlier work
[2] = randomized clinical study, sublingual administration of 30 mg of Fe2+ to healthy volunteers; type: in vivo, human; details: for Serum Fe / Transferrin saturation / Total iron / NTBI (free non transferrin bound iron): 30 mg Fe2+ sublingual (6 sachets of example 6), fasting healthy volunteers n=2, average; for Total iron / NTBI (free non transferrin bound iron): ICP-MS; for NTBI (free non transferrin bound iron): ultrafiltration
Experimental: The participants were hospitalized for two days prior to administration until the next day and were under medical observation.
The samples were then analyzed with respect to the trend of (average) concentrations of various indicators over time.
Total iron measured in micrograms/dl (ICP-MS)
Free iron by ultrafiltration measured in micromoles/liter (=NTBI) (ICP-MS)
Total iron binding capacity (TIBC) measured in micrograms/dl (column separation, Vitros analyzer)
Transferrin saturation (PTS) measured in %
Serum iron (SI), measured in micrograms/dl, colorimetric method (Vitros analyzer)

[3] = system: Pig esophageal epithelium; assay: in vitro permeation in the Franz cell (model of sublingual absorption); details: FIG. 2
Experimental: Sublingual absorption of Fe++ compounds was evaluated by means of in vitro permeation experiments using the Franz cell exemplified in FIG. 1. Pig esophageal epithelium was used as membrane. This experimental model is recognized as valid and reliable in the assessment of sublingual absorption of drugs [I. Diaz Del Consuelo, G. P. Pizzolato, F. Falsom, R. H. Guy, and Y. Jacques.: Evaluation of pig esophageal mucosa as a permeability barrier model for buccosal tissue. J. Pharm. […] Arch. […] Membrane preparation occurred by following the method described here. The esophagi were taken from the animals within one hour after sacrifice. The mucosa was separated from the muscle tissue with a lancet. To separate the epithelium, the mucosa was immersed in distilled water at 60° C. for 2 minutes and then the epithelium was removed from the underlying tissue with the aid of a spatula. The tissues thus prepared were stored at −20° C. until the time of use, when they were thawed to room temperature before being mounted on the vertical diffusion cells of the Franz type, a schematic view of which is shown in FIG. 1. The esophageal epithelium was placed on a regenerated cellulose filter (pore diameter 0.45 μm) with the luminal side facing up, and mounted between the donor and receptor compartments of the Franz cells. […] The exposed surface was 0.6 cm^2. The receptor compartment was filled with approximately 4 ml of physiological solution (0.9% NaCl w/v) and kept under constant magnetic agitation for the entire duration of the experiment. The entire system was thermostat-controlled at 37° C. Sampling of the receptor compartment was performed by drawing 200 μl of receptor solution, which were replaced immediately with an equal volume of fresh physiological solution. The samples were taken at preset time intervals, specifically at 0, 1, 2, 3, 4, 5 and 6 hours.
4 g of powder were suspended in 10 ml of physiological solution and left under agitation for 15 minutes, then the solution was filtered with regenerated cellulose filters (pore diameter 0.45 μm).
6 g of powder were suspended in 10 ml of physiological solution. The suspension was left under magnetic agitation for 25 minutes and then filtered with regenerated cellulose filters (pore diameter 0.45 μm).
7 g of powder were suspended in 6 ml of physiological solution. The suspension was left under magnetic agitation for 1 hour; at the end it was filtered with regenerated cellulose filters (pore diameter 0.45 μm).
An excess of ascorbic acid (2 g) was added to the solution. The suspension was left under magnetic agitation for 30 minutes and after filtration through regenerated cellulose filters (pore diameter 0.45 μm) was used as it was.
4 g of powder were suspended in 10 ml of physiological solution. The suspension was left under magnetic agitation for 15 hours, at the end of which it was filtered with regenerated cellulose filters (pore diameter 0.45 μm).
An excess of powder was suspended in 10 ml of physiological solution. The suspension was left under magnetic agitation for 15 hours, at the end of which it was filtered with regenerated cellulose filters (pore diameter 0.45 μm).

## ferrous ascorbate [Fe++ ascorbate]
[1]; after 2 hours
  increase in transferrin saturation: approximately 45%
[1]; after two hours
  transferrin saturation (absolute): approximately 75%
[1]; at the time of administration
  Transferrin saturation: approximately 30%
[1]; within two hours, from 0
  free iron (NTBI): 6.7 µmol/L
[2]; time 0 h
  Serum Fe: 0 µg/dL
[2]; time 0 min (at administration)
  Transferrin saturation: ~24%
[2]; time 0.033 h
  Serum Fe: 5.5 µg/dL
[2]; time 2 min
  Transferrin saturation: 28%
  NTBI (free non transferrin bound iron): -0.306 µmol/L
[2]; time 0.100 h
  Serum Fe: 7 µg/dL
[2]; time 6 min
  Transferrin saturation: 28%
  NTBI (free non transferrin bound iron): -0.215 µmol/L
[2]; time 0.200 h
  Serum Fe: 6 µg/dL
[2]; time 12 min
  Transferrin saturation: 28.5%
  NTBI (free non transferrin bound iron): 0.029 µmol/L
[2]; time 0.330 h
  Serum Fe: 10 µg/dL
[2]; time 20 min
  Transferrin saturation: 26.5%
  NTBI (free non transferrin bound iron): 0.067 µmol/L
[2]; time 0.500 h
  Serum Fe: 24 µg/dL
[2]; time 30 min
  Transferrin saturation: 36%
  NTBI (free non transferrin bound iron): 0.106 µmol/L
[2]; time 0.750 h
  Serum Fe: 51.5 µg/dL
[2]; time 45 min
  Transferrin saturation: 40.5%
  NTBI (free non transferrin bound iron): 0.448 µmol/L
[2]; time 1.000 h
  Serum Fe: 72 µg/dL
[2]; time 60 min
  Transferrin saturation: 50%
  NTBI (free non transferrin bound iron): 0.311 µmol/L
[2]; time 1.250 h
  Serum Fe: 91 µg/dL
[2]; time 75 min
  Transferrin saturation: 51.5%
  NTBI (free non transferrin bound iron): 1.191 µmol/L
[2]; time 1.500 h
  Serum Fe: 110.5 µg/dL
[2]; time 90 min
  Transferrin saturation: 60%
  NTBI (free non transferrin bound iron): 0.084 µmol/L
[2]; time 1.750 h
  Serum Fe: 118.5 µg/dL
[2]; time 105 min
  Transferrin saturation: 49.5%
  NTBI (free non transferrin bound iron): 0.806 µmol/L
[2]; time 2.000 h
  Serum Fe: 129 µg/dL
[2]; time 120 min (2 hours), listed as Fe2+ (as ascorbate)
  Transferrin saturation: 65.5%
[2]; time 120 min (2 hours), listed as Fe2+ Ascorbate
  Transferrin saturation: 66.5%
[2]; 30 mg of Fe2+ sublingual, healthy volunteers, after 2 hours versus time of administration
  increase in transferrin saturation (PTS): 42.5%
[2]; 30 mg of Fe2+ sublingual, healthy volunteers, after 2 hours, from 0
  free iron (NTBI): 0.34 µmol/L
[2]; time 0.00 h
  Total iron: 0 µg/dL
[2]; time 0.03 h
  Total iron: -7.4 µg/dL
[2]; time 0.10 h
  Total iron: 6.2 µg/dL
[2]; time 0.20 h
  Total iron: -13.54 µg/dL
[2]; time 0.33 h
  Total iron: 5.95 µg/dL
[2]; time 0.50 h
  Total iron: 6.37 µg/dL
[2]; time 0.75 h
  Total iron: 41.58 µg/dL
[2]; time 1.00 h
  Total iron: 51.01 µg/dL
[2]; time 1.25 h
  Total iron: 80.17 µg/dL
[2]; time 1.50 h
  Total iron: 90.15 µg/dL
[2]; time 1.75 h
  Total iron: 95.7 µg/dL
[2]; time 2.00 h
  Total iron: 110.94 µg/dL
[2]; time 0 min
  NTBI (free non transferrin bound iron): 0.000 µmol/L
[2]; time 120 min
  NTBI (free non transferrin bound iron): 0.339 µmol/L
[3]; 50 mg/ml solution, in the presence of ascorbic acid, pH 2.6, after 3 hours
  permeated divalent Fe: above 150 micrograms/square centimeter
[3]; 50 mg/ml solution, in the presence of ascorbic acid, pH 2.6, after 4 hours
  permeated divalent Fe: approximately 200 micrograms/square centimeter
[3]; 350 mg/ml solution, in the presence of ascorbic acid, pH 4.4, after 3 hours
  permeated divalent Fe: below 150 micrograms/square centimeter
[3]; 350 mg/ml solution, in the presence of ascorbic acid, pH 4.4, after 4 hours
  permeated divalent Fe: approximately 200 micrograms/square centimeter
[3]; 400 mg/ml solution, in the absence of ascorbic acid, pH 4.4, after 3 hours
  permeated divalent Fe: above 100 micrograms/square centimeter
[3]; 400 mg/ml solution, in the absence of ascorbic acid, pH 4.4, after 6 hours
  permeated divalent Fe: approximately 150 micrograms/square centimeter
[3]; 600 mg/ml solution, in the absence of ascorbic acid, pH 4.4, after 3 hours
  permeated divalent Fe: above 100 micrograms/square centimeter
[3]; 600 mg/ml solution, in the absence of ascorbic acid, pH 4.4, after 6 hours
  permeated divalent Fe: approximately 125 micrograms/square centimeter
[3]; 1000 mg/ml solution, in the absence of ascorbic acid, pH 4.4, after 3 hours
  permeated divalent Fe: approximately 50 micrograms/square centimeter
[3]; 1000 mg/ml solution, in the absence of ascorbic acid, pH 4.4, after 5 hours
  permeated divalent Fe: approximately 100 micrograms/square centimeter
